The source of these data is patent publication US8895561B2, “Compounds and methods for treating candidiasis and aspergillus infections” (Cellceutix Corporation, priority 2012, dated 2014).

Converted amounts (≈) assume the structure as drawn. Where two headings read alike, the source gives them in different places.

For series [1], the system named is C. albicans GDH2346. Put plainly: Candida IC50, vegetative cells, by OD600 and fluorescence. The format is cell-based. The note with it: Candida albicans, GDH2346. Here is the method: (§1) Candida IC50s were determined by OD600 and fluorescence from vegetative cells and by MTS viability assay in the hyphal state. MICs were determined using a broth microdilution assay under standard CLSI conditions Bacteria strains: E. coli 25922 (EC), S. aureus 27660 (SA), E. faecalis 29212 (EF), P. aeruginosa 10145 (PA), and K. pneumoniae 13883 (KP). Cytotoxicity (EC50) was determined against mouse 3T3 fibroblasts, human transformed liver HepG2 cells, and human oral keratinocyte cell line, OKF6/TERT using an MTS viability assay. Candida IC50s<10 μg/mL, MICs<5 μg/mL and cytotoxicity EC50s>100 μM are indicated in green. MICs>5 μg/mL and cytotoxicity EC50s<100 μM are indicated in red. Candida IC50s (CA) were determined by OD600 and fluorescence from vegetative cells. MICs were determined using a broth microdilution assay under standard CLSI conditions Bacteria strains: E. coli 25922 (EC), S. aureus 27660 (SA), E. faecalis 29212 (EF), P. aeruginosa 10145 (PA), and K. pneumoniae 13883 (KP). Cytotoxicity (EC50) was determined against mouse 3T3 fibroblasts and human transformed liver HepG2 cells using an MTS viability assay. For determination of anti-Candida IC50s, the method was modified by using RPMI/MOPS buffer pH 6.3 and by addition of FDGlu, a substrate for the yeast enzyme exoglucanase which is secreted during cell growth. This provides a fluorescent readout for cell growth which was used in addition to the traditional optical density measure of growth. OD600 and fluorescence were determined at 24 and 48 hours and the average of all 4 reads was used for the final IC50 determination.

Series [2] relates to C. albicans GDH2346. Put plainly: Candida MIC, CLSI M27-A3. The format is cell-based. The note with it: Candida albicans, GDH2346; Table 5; read-out: MIC C. albicans. The procedure:
(§2) Candida MIC assays were determined in accordance with CLSI guidelines M27-A3 using a clinically isolated C. albicans strain, GDH2346.50% human serum was added to determine activity in the presence of serum.

The test system of series [3] is C. albicans GDH2346 hyphal biofilm. In words: Candida IC50 in the hyphal state / hyphal biofilm, MTS viability assay. To be noted: Candida albicans, 48 h; 2-day hyphal biofilm cultures; read-out: Anti-C. albicans GDH2346 Hyphal (IC50). The format is cell-based. The procedure:
Candida IC50s were determined by OD600 and fluorescence from vegetative cells and by MTS viability assay in the hyphal state. MICs were determined using a broth microdilution assay under standard CLSI conditions Bacteria strains: E. coli 25922 (EC), S. aureus 27660 (SA), E. faecalis 29212 (EF), P. aeruginosa 10145 (PA), and K. pneumoniae 13883 (KP). Cytotoxicity (EC50) was determined against mouse 3T3 fibroblasts, human transformed liver HepG2 cells, and human oral keratinocyte cell line, OKF6/TERT using an MTS viability assay. Candida IC50s<10 μg/mL, MICs<5 μg/mL and cytotoxicity EC50s>100 μM are indicated in green. MICs>5 μg/mL and cytotoxicity EC50s<100 μM are indicated in red. To form the biofilm, yeast were grown in RPMI/MOPS, 0.4% sucrose pH7.4 media supplemented with 10% FBS in tissue culture-treated flat bottom 96 well plates for 48 hours. The filamentous yeast cultures were then vigorously washed to remove any non-filamentous, non-attached yeast. The remaining attached filamentous biofilm yeast were incubated in saline containing serially diluted compounds for 24 hours. The cultures were aspirated to remove compound, rinsed and overlayed with RPMI/MOPS, 0.4% sucrose pH7.4 media. Biofilm viability was measured using a cell proliferation assay (CellTiter96 Aqueous Kit from Promega) and IC50s were determined using Prism GraphPad software (nonlinear fit, Table 3).
(In general: Tetrazolium assays rely on reduction of a dye to a coloured formazan, in cell work by metabolically active cells.)

Series [4] has as its system A. viscosis. In words: Commensal bacteria MIC, broth microdilution. The format is cell-based. Here is the method:
(§3) Bacterial MICs were determined using a broth microdilution assay under standard
(§4) CLSI conditions Bacteria strains: clinical isolates; yeast strains: C. dubliniensis (NCPF3949), C. glabrata (ATCC 90030), C. krusei (ATCC 6258), C. parapsilosis (ATCC 22019), and C. tropicalis (ATCC 750). Cytotoxicity (EC50) was determined against mouse 3T3 fibroblasts, human transformed liver HepG2 cells, and human oral keratinocyte cell line, OKF6/TERT using an MTS viability assay.
For orientation: In broth dilution the organism is exposed to a series of concentrations in liquid medium.

Series [5] has as its system S. salivarius. Put plainly: Commensal bacteria MIC, broth microdilution. It counts as cell-based. The note with it: Streptococcus salivarius. Here is the method: as §3, §4
The test system of series [6] is C. tropicalis (ATCC 750). In words: Yeast MIC. To be noted: Candida tropicalis, ATCC750. It counts as cell-based. Here is the method:
as §2, §4

Series [7] concerns C. parapsilosis (ATCC 22019). In words: Yeast MIC. The format is cell-based. The note with it: Lodderomyces parapsilosis, ATCC22019. The procedure:
as §2, §4

The subject of series [8] is C. dubliniensis (NCPF3949). Put plainly: Yeast MIC. It counts as cell-based. The note with it: Candida dubliniensis, NCPF3949; Table 5; read-out: MIC C. dubliniensis. The procedure: as §2, §4
The subject of series [9] is C. krusei (ATCC 6258). Put plainly: Yeast MIC. The format is cell-based. The note with it: Pichia kudriavzevii, ATCC6258. Here is the method:
as §2, §4

The test system of series [10] is C. glabrata (ATCC 90030). In words: Yeast MIC. It counts as cell-based. To be noted: Nakaseomyces glabratus, ATCC90030; Table 5; read-out: MIC C. glabrata. The procedure:
as §2, §4

Series [11] concerns P. aeruginosa 10145. In words: Bacterial MIC, broth microdilution, CLSI. The format is cell-based. To be noted: Pseudomonas aeruginosa, 10145; read-out: PA (MIC). Here is the method:
as §1, with “assay.” for “assay. For determination of anti-Candida IC50s, the method was modified by using RPMI/MOPS buffer pH 6.3 and by addition of FDGlu, a substrate for the yeast enzyme exoglucanase which is secreted during cell growth. This provides a fluorescent readout for cell growth which was used in addition to the traditional optical density measure of growth. OD600 and fluorescence were determined at 24 and 48 hours and the average of all 4 reads was used for the final IC50 determination.”

In series [12] the test system is E. faecalis 29212. In words: Bacterial MIC, broth microdilution, CLSI. The format is cell-based. To be noted: Enterococcus faecalis, 29212; read-out: EF (MIC). The procedure: as §1, with “assay.” for “assay. For determination of anti-Candida IC50s, the method was modified by using RPMI/MOPS buffer pH 6.3 and by addition of FDGlu, a substrate for the yeast enzyme exoglucanase which is secreted during cell growth. This provides a fluorescent readout for cell growth which was used in addition to the traditional optical density measure of growth. OD600 and fluorescence were determined at 24 and 48 hours and the average of all 4 reads was used for the final IC50 determination.”

In series [13] the test system is S. aureus 27660. Put plainly: Bacterial MIC, broth microdilution, CLSI. The format is cell-based. The note with it: Staphylococcus aureus, 27660; read-out: SA (MIC). The procedure:
as §1, with “assay.” for “assay. For determination of anti-Candida IC50s, the method was modified by using RPMI/MOPS buffer pH 6.3 and by addition of FDGlu, a substrate for the yeast enzyme exoglucanase which is secreted during cell growth. This provides a fluorescent readout for cell growth which was used in addition to the traditional optical density measure of growth. OD600 and fluorescence were determined at 24 and 48 hours and the average of all 4 reads was used for the final IC50 determination.”

Series [14] concerns E. coli 25922. Put plainly: Bacterial MIC, broth microdilution, CLSI. To be noted: Escherichia coli, 25922; read-out: EC (MIC). It counts as cell-based. Here is the method: as §1, with “assay.” for “assay. For determination of anti-Candida IC50s, the method was modified by using RPMI/MOPS buffer pH 6.3 and by addition of FDGlu, a substrate for the yeast enzyme exoglucanase which is secreted during cell growth. This provides a fluorescent readout for cell growth which was used in addition to the traditional optical density measure of growth. OD600 and fluorescence were determined at 24 and 48 hours and the average of all 4 reads was used for the final IC50 determination.”

Series [15] can be described thus: Cytotoxicity, MTS viability assay. The format is cell-based, human. The procedure: Candida IC50s were determined by OD600 and fluorescence from vegetative cells and by MTS viability assay in the hyphal state. MICs were determined using a broth microdilution assay under standard CLSI conditions Bacteria strains: E. coli 25922 (EC), S. aureus 27660 (SA), E. faecalis 29212 (EF), P. aeruginosa 10145 (PA), and K. pneumoniae 13883 (KP). Cytotoxicity (EC50) was determined against mouse 3T3 fibroblasts, human transformed liver HepG2 cells, and human oral keratinocyte cell line, OKF6/TERT using an MTS viability assay. Candida IC50s<10 μg/mL, MICs<5 μg/mL and cytotoxicity EC50s>100 μM are indicated in green. MICs>5 μg/mL and cytotoxicity EC50s<100 μM are indicated in red.
Candida IC50s (CA) were determined by OD600 and fluorescence from vegetative cells. MICs were determined using a broth microdilution assay under standard CLSI conditions Bacteria strains: E. coli 25922 (EC), S. aureus 27660 (SA), E. faecalis 29212 (EF), P. aeruginosa 10145 (PA), and K. pneumoniae 13883 (KP). Cytotoxicity (EC50) was determined against mouse 3T3 fibroblasts and human transformed liver HepG2 cells using an MTS viability assay.
as §4

The mark [16] stands for this setting: vegetative cultures, read-out: Anti-C. albicans GDH2346 Vegetative (IC50).
Setting [17] is: vegetative cells, read-out: CA (Candida IC50).
Setting [18] is: human, HepG2 cells (transformed liver), read-out: HepG2 (cytotoxicity EC50).
Where [19] appears, read: mouse, 3T3 fibroblasts, read-out: 3T3 (cytotoxicity EC50).

As for `N=C(N)NCCc1cccc(-c2ccc(-c3cccc(CCNC(=N)N)c3)s2)c1` [Compound 185], the IC50 (commonly the concentration that inhibits the measured activity by half) in [1] (setting [16]) stood at 1.09 µg/mL (≈ 2.68 µM); in series [3] it was 1 µg/mL (≈ 2.46 µM). In addition, the MIC – broadly, the lowest concentration found to suppress growth – came to 2 µg/mL (≈ 4.92 µM) in [2]; 4 µg/mL (≈ 9.84 µM) in series [4]; 8 µg/mL (≈ 19.7 µM) in [5]; 0.5 µg/mL (≈ 1.23 µM) in series [6]; 2 µg/mL (≈ 4.92 µM) in series [7]; 2 µg/mL (≈ 4.92 µM) in series [8]. Moreover, the MIC in series [9] and in [10] was 2 µg/mL (≈ 4.92 µM) each time.

`NCCc1cc(Br)cc(C#Cc2cccc(C#Cc3cc(Br)cc(CCN)c3)c2)c1` [Compound 164]: the IC50 is 4.88 µg/mL (≈ 9.34 µM) in [1] (setting [16]) and 11 µg/mL (≈ 21.1 µM) in series [3].

Take `NCCCn1c2cc(-c3cccc(OCCN)c3)ccc2c2ccc(-c3cccc(OCCN)c3)cc21` [Compound 151]: in series [1] (setting [17]), the IC50 is 3.85 µg/mL (≈ 7.78 µM). Also, the minimal inhibitory concentration (MIC) was 6.25 µg/mL (≈ 12.6 µM) in series [11], 6.25 µg/mL (≈ 12.6 µM) in series [12], 0.195 µg/mL (≈ 0.394 µM) in series [13] and 3.13 µg/mL (≈ 6.33 µM) in series [14]. The concentration giving a half-maximal response (EC50) (as a rule, the concentration at which the effect is half-maximal) in series [15] (setting [18]) worked out at 78 µM; in [15] (setting [19]) it was 56 µM.

Take `NCCCOc1cccc(-c2ccc3c4ccc(-c5cccc(OCCCN)c5)cc4n(CCCN)c3c2)c1` [Compound 150]: the IC50 in series [1] (setting [17]) came out at 3.34 µg/mL (≈ 6.39 µM). Further, the MIC was determined as 3.13 µg/mL (≈ 5.99 µM) in series [11], 1.56 µg/mL (≈ 2.98 µM) in series [12], 0.049 µg/mL (≈ 0.0937 µM) in series [13] and 0.78 µg/mL (≈ 1.49 µM) in [14]. The EC50 amounted to 58 µM in series [15] (setting [18]) and 54 µM in series [15] (setting [19]).

In the case of `N=C(N)NCCc1cccc(-c2ccc(-c3cccc(CCNC(=N)N)c3)cc2)c1` [Compound 186], the IC50 in series [1] (setting [16]) came to 1.03 µg/mL (≈ 2.57 µM); in [3], 1.4 µg/mL (≈ 3.5 µM). For the same compound, the MIC came out at 2 µg/mL (≈ 4.99 µM) in series [2]; 4 µg/mL (≈ 9.99 µM) in [4]; 8 µg/mL (≈ 20 µM) in [5]; 0.5 µg/mL (≈ 1.25 µM) in [6]; 2 µg/mL (≈ 4.99 µM) in [7]; 2 µg/mL (≈ 4.99 µM) in series [8]. For the same compound, the minimal inhibitory concentration (MIC) in [9] and in series [10] was 2 µg/mL (≈ 4.99 µM) in each case.
